From the supplement of paper PMC10307832

Legend:
Experiment in all cases: relative viability (nuclei count vs DMSO), 5 days (fraction); higher = more cells survive
Vemurafenib + Luminespib = compound: CCCS(=O)(=O)Nc1ccc(F)c(C(=O)c2c[nH]c3ncc(-c4ccc(Cl)cc4)cc23)c1F [Vemurafenib] + CCNC(=O)c1noc(-c2cc(C(C)C)c(O)cc2O)c1-c1ccc(CN2CCOCC2)cc1 [Luminespib] (partner 0.01 µM)
In short: (§1)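 Relative viability equals treated-well nuclei counts divided by vehicle-well nuclei counts. Counts came from 4× images of lung cancer cell lines grown in 1536-well plates for 5 days after pin-tool dosing on the day after seeding. Dosing used one drug alone or a fixed anchor-drug dose plus five library-drug doses (not always all listed) in √10 steps, and values are medians of duplicate plates.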

OSI-027 + Pemetrexed = compound: COc1cccc2cc(-c3nc([C@H]4CC[C@H](C(=O)O)CC4)n4ncnc(N)c34)[nH]c12 [OSI-027] + Nc1nc2[nH]cc(CCc3ccc(C(=O)N[C@@H](CCC(=O)O)C(=O)O)cc3)c2c(=O)[nH]1 [Pemetrexed] (partner 0.2 µM)
In short: as §1

Alpelisib + Foretinib = compound: Cc1nc(NC(=O)N2CCC[C@H]2C(N)=O)sc1-c1ccnc(C(C)(C)C(F)(F)F)c1 [Alpelisib] + COc1cc2c(Oc3ccc(NC(=O)C4(C(=O)Nc5ccc(F)cc5)CC4)cc3F)ccnc2cc1OCCCN1CCOCC1 [Foretinib] (partner 0.25 µM)
In short: as §1

Alpelisib + Tozasertib = compound: Cc1nc(NC(=O)N2CCC[C@H]2C(N)=O)sc1-c1ccnc(C(C)(C)C(F)(F)F)c1 [Alpelisib] + Cc1cc(Nc2cc(N3CCN(C)CC3)nc(Sc3ccc(NC(=O)C4CC4)cc3)n2)n[nH]1 [Tozasertib] (partner 0.1 µM)
In short: as §1

| Cell Line | relative viability (Vemurafenib + Luminespib; first compound 0.03162 µM) | relative viability (Vemurafenib + Luminespib; first compound 0.1 µM) | relative viability (Vemurafenib + Luminespib; first compound 0.3162 µM) | relative viability (Vemurafenib + Luminespib; first compound 1 µM) | relative viability (OSI-027 + Pemetrexed; first compound 0.01 µM) | relative viability (OSI-027 + Pemetrexed; first compound 0.03162 µM) | relative viability (OSI-027 + Pemetrexed; first compound 0.1 µM) | relative viability (OSI-027 + Pemetrexed; first compound 0.3162 µM) | relative viability (OSI-027 + Pemetrexed; first compound 1 µM) | relative viability (Alpelisib + Foretinib; first compound 0.04 µM) | relative viability (Alpelisib + Foretinib; first compound 0.1265 µM) | relative viability (Alpelisib + Foretinib; first compound 0.4 µM) | relative viability (Alpelisib + Foretinib; first compound 1.265 µM) | relative viability (Alpelisib + Foretinib; first compound 4 µM) | relative viability (Alpelisib + Tozasertib; first compound 0.04 µM) | relative viability (Alpelisib + Tozasertib; first compound 0.1265 µM) | relative viability (Alpelisib + Tozasertib; first compound 0.4 µM) | relative viability (Alpelisib + Tozasertib; first compound 1.265 µM) | relative viability (Alpelisib + Tozasertib; first compound 4 µM) |
| --- | --- | --- | --- | --- | --- | --- | --- | --- | --- | --- | --- | --- | --- | --- | --- | --- | --- | --- | --- |
| 201T | 1.01 | 1.05 | 1.14 | 1.03 | 0.316 | 0.348 | 0.313 | 0.332 | 0.305 | 1.11 | 1.06 | 1.29 | 0.841 | 0.71 | 0.934 | 0.918 | 0.917 | 0.838 | 0.8 |
| A549 |  |  |  |  |  |  |  |  |  | 0.926 | 0.875 | 0.956 | 0.662 | 0.599 |  |  |  |  |  |
| A-427 | 0.846 | 0.919 | 0.627 | 0.87 | 0.575 | 0.966 | 0.783 | 0.737 | 0.616 | 1.19 | 0.833 | 1.11 | 0.831 | 0.992 | 0.225 | 0.196 | 0.244 | 0.198 | 0.194 |
| ABC-1 |  |  |  | 0.779 |  |  |  |  |  | 1.28 | 0.876 | 0.878 | 0.611 | 0.78 | 0.175 | 0.157 | 0.155 | 0.195 | 0.188 |
| BEN | 0.382 | 0.302 |  | 0.274 | 0.78 | 0.754 | 0.472 | 0.586 | 0.46 | 0.792 | 0.401 | 0.732 | 0.737 | 0.521 | 0.552 | 0.443 | 0.571 | 0.521 | 0.484 |
| CAL-12T | 0.375 | 0.345 | 0.228 | 0.847 | 1.17 | 1.18 | 1.22 | 0.976 | 0.527 | 1.08 | 1.24 | 1.14 | 1.06 | 1.07 | 0.295 | 0.308 | 0.246 | 0.212 | 0.317 |
| COR-L23 | 0.571 | 0.744 | 0.632 | 0.688 | 0.194 | 0.194 | 0.193 | 0.181 | 0.197 | 1.01 | 0.933 | 1.12 | 0.843 | 0.839 | 0.205 | 0.208 | 0.218 | 0.19 | 0.13 |
| COR-L 105 | 0.738 |  |  | 0.935 | 1.22 | 1.18 | 1.13 | 1.04 | 0.999 | 1.08 | 1.26 | 1.02 | 1 | 1.08 | 0.372 | 0.343 | 0.591 | 0.306 | 0.334 |
| Calu-6 |  |  |  |  |  |  |  |  |  | 0.926 | 0.842 | 0.931 | 0.871 | 0.617 |  |  |  |  |  |
| ChaGo-K-1 | 0.555 | 0.45 | 0.548 | 0.551 | 0.259 | 0.311 | 0.251 | 0.337 | 0.262 | 0.881 | 0.91 | 1.01 | 0.807 | 0.8 | 0.202 | 0.202 | 0.211 | 0.194 | 0.197 |
| EBC-1 |  |  |  |  |  |  |  |  |  | 0.101 | 0.0979 | 0.0957 | 0.108 | 0.114 |  |  |  |  |  |
| EKVX | 0.884 |  | 0.921 | 0.842 | 0.438 | 0.391 | 0.486 | 0.382 | 0.403 | 0.519 | 0.726 | 0.66 | 0.67 | 0.73 | 0.346 | 0.308 | 0.499 | 0.333 | 0.198 |
| EMC-BAC-2 | 1.08 | 1.03 | 1.19 | 1.22 | 0.385 | 0.493 | 0.478 | 0.472 | 0.392 | 0.973 | 0.867 | 1.01 | 0.689 | 0.592 | 0.294 | 0.255 | 0.307 | 0.242 | 0.242 |
| EPLC-272H | 0.316 | 0.0941 | 0.494 | 0.228 | 0.357 | 0.279 | 0.263 | 0.273 | 0.338 | 0.723 | 0.674 | 0.754 | 0.376 | 0.422 | 0.256 | 0.326 | 0.513 | 0.203 | 0.173 |
| H3255 | 0.837 |  | 0.824 | 0.809 | 0.517 | 0.569 | 0.507 | 0.513 | 0.495 | 0.973 | 0.753 | 0.96 | 0.695 | 0.562 | 0.702 | 0.683 | 0.767 | 0.431 | 0.438 |
| HARA | 0.482 | 0.6 | 0.638 | 0.814 | 0.249 | 0.221 | 0.231 | 0.227 | 0.264 | 0.914 | 0.888 | 0.879 | 0.682 | 0.533 | 0.109 | 0.074 | 0.107 | 0.0657 | 0.0666 |
| HCC-15 | 0.203 | 0.484 | 0.16 | 0.315 | 0.221 | 0.239 | 0.211 | 0.227 | 0.231 | 0.982 | 1 | 0.961 | 0.792 | 0.735 | 0.352 | 0.373 | 0.487 | 0.336 | 0.263 |
| HCC-44 | 0.915 | 1.19 |  | 1.07 | 0.668 | 0.649 | 0.708 | 0.658 | 0.669 |  |  |  |  |  | 0.883 | 0.935 | 1.11 | 0.376 | 0.607 |
| HCC-78 |  |  |  |  | 0.954 | 0.918 | 0.911 | 0.913 | 0.887 | 0.495 | 0.426 | 0.493 | 0.353 | 0.366 | 0.411 | 0.318 | 0.504 | 0.401 | 0.292 |
| HCC-366 |  |  |  |  | 0.18 | 0.162 | 0.175 | 0.186 | 0.206 | 0.887 | 0.939 | 0.868 | 0.861 | 0.349 | 0.151 | 0.117 | 0.13 | 0.0701 | 0.0516 |
